According to US8211483B2, “Composition comprising starch or dietary fiber from gramineae plant for prevention and treatment of ischemic diseases and degenerative brain disease” (Hypoxi Co., Ltd., priority 2007, dated 2012):

Columns and labels:
SH-SY5Y cells = assay: MTT assay, beta-amyloid-induced cytotoxicity in SH-SY5Y cells; assay type: cell-based, human; details: 15 microM beta-amyloid (alone 60.4%), p<0.05, FIG. 3e; for viability at 250 µg/mL: Homo sapiens, 250 microgram/ml, read-out: cell viability
Experimental: To identify the neuroprotective effect of inventive crude extract, starch and total dietary fiber on the cytotoxicity induced by beta-amyloid, which is regarded as one of the main causes of Alzheimer's disease, the following MTT assay was performed by the procedure disclosed in the literature (Hoffman R. M., Cell Biology (Celis J E (Ed.), Vol. 1, pp 369-370, Academic Press, New York, 1994) with minor modification.
SH-SY5Y cells (human neuroblastoma cell line, ATCC CRL-2266, 4×10^4 cells/300 microliter/well) were seeded onto 48 well plates and incubated in Dulbecco's modified Eagle Medium/F12 90% medium (Invitrogen, USA) supplemented with penicillin G sodium (100 Units/L, Invitrogen, USA), streptomycin sulfate (100 mg/L, Invitrogen, USA) and 10% (w/v) fetal bovine serum (Invitrogen, USA); incubated at 37° C. in 5% CO2-95% air incubator for 48 hours. After changing the media, the cells were treated with beta-amyloid to the final concentrations of 0, 2.5, 7.5 and 25 microM for 24 hours in the absence (designated as Aβ25-35 alone group hereinafter) or presence with inventive starch isolated from Triticum aestivum L. (final concentration: 125 microgram/ml; designated as A25-35+SW group hereinafter) or soluble starch (final concentration: 125 microgram/ml; designated as A25-35+SS group hereinafter) which were made from 50 microgram/ml stock solutions in DMSO (See FIGS. 3a & 3b). After incubation, cells were treated with MTT solution (final concentration of 1 mg/ml) for 2 hours. The dark blue formazan in viable cells was dissolved in DMSO and absorbance at 540 nm was measured by a microplate reader (FLUOstar OPTIMA, BMG LABTECH, GERMANY).
Based on the above-mentioned result, to further examine the protective effects of the crude extract of Triticum aestivum L. or starches isolated from Gramnieae plants against the beta-amyloid-induced cytotoxicity, the concentration of beta-amyloid was fixed to 25 microM. The crude extract of Triticum aestivum L. (HY6228, shown as HY in FIG. 3c; 250 microgram/ml) and starches isolated from Gramnieae plants (SS, SC, SR and SW; 125 microgram/ml) were added thereto to incubation (See FIG. 3c). We also have examined the cell viability improving effect of total dietary fiber (TDF; 500, 1000 microgram/ml) in the presence of 10 microM of beta-amyloid (See FIG. 3d).
In addition, arabinoxylan (AX; 500 microgram/ml), arabinose (Ara; 250 microgram/ml), xylose (Xyl; 250 microgram/ml) and beta-glucan (b-glu; 20 microgram/ml) were added to the media in the presence of 15 microM beta-amyloid (See FIG. 3e).

[1] = test system: myocardial infarction-induced rat model; assay: Myocardial infarction-induced rat model (LAD ischemia-reperfusion), oral administration; assay type: in vivo; details: for size of infarcted area reduced by: 10 mg/kg/day oral, vs control 50.6%, p<0.05, FIG. 5c; for IA (% AAR): 10 mg/kg/day with food from three days before ischemia, control 50.6%, FIG. 5c
Experimental: The therapeutic efficacy of inventive starch and total dietary fiber on myocardial infarction was measured in myocardial infarction-induced rat model, using experiment rats prepared in Reference Example 1, in accordance with the procedure disclosed in the literature (Haisong J et al., Circulation, 97, pp 892-899, 1998), with minor modification.
SD rats prepared in Reference Example 1 were anesthetized with 10 mg/kg ketamine (Yuhan Corp., KOREA) and 5 mg/kg xylazine (Sigma, USA) and intubated endotracheally. The rats were connected to a respirator through a tracheotomy, and the heart was rapidly exteriorized through a left thoracotomy and pericardial incision. The upper region of left coronary artery (LAD) was ligated by passing a 5-0 prolene thread under LAD and tightening polyethylene tubing 50 (PE 50), resulting in ischemia. After 30 min of ischemia, 3 hours of reperfusion followed, after the tightened PE 50 was loosened. After the ischemia-reperfusion, the PE 50 was tightened again to induce ischemia, and then 2 ml of 1% Evans blue dye solution was infused intravenously to circulate whole body. Then the heart was isolated, cut into the width of 2-3 mm after the right atrium and right ventricle of the heart were removed. Then the stained (LV-AAR) and unstained area (AAR) of cross sectioned tissue was measured by using image analysis system (Quantity One 4.2, Bio-Rad, USA) to calculate the area at risk (AAR/LV, %). Then, the tissue was stained with 1% TTC (2,3,5-triphenyltetrazolium chloride, Sigma, USA) at 37° C. for 15 mins, fixed with 10% formalin solution. The infarcted area (IA/LV, %) was determined by measuring necrotic white area (IA) and total left ventricle area (LV). The ratio of IA to AAR of test samples and control group was compared to test efficacy.
The inventive starch, total dietary fiber, and representative components of the fiber mixed with food were administered orally, and the size of infarcted area was measured. To determine the proper dose with safety and maximum efficacy at the same time, the minimum dose calculated from the result obtained in Experimental Example 1 was set as a starting point, and the dose was increased according to two-fold increasing method, i.e., 100, 200 and 400 mg/kg.
Three days before the induction of ischemia, 400 mg/kg/day of HY6228 or inventive starch, or 10 mg/kg/day of inventive total dietary fiber, or 10 mg/kg/day of its components, such as arabinoxylan, beta-glucan, arabinose and xylose, was fed with 20 g of food with free access. After induction of myocardial infarction with 3 hours of reperfusion, the infarcted area was measured, the value of IA (% AAR) was calculated, and then efficacy of the inventive starch and total dietary fiber was compared with each other.

[2] = test system: vascular dementia-induced rat model; assay: Vascular dementia-induced rat model (BCCAO), water-maze test; assay type: in vivo; details: 50 mg/kg fed for 1 week, FIG. 8b, 8c
Experimental: The therapeutic efficacy of inventive starch and total dietary fiber of the present invention on vascular dementia was measured in vascular dementia-induced rat model, using experiment rats prepared in Reference Example 1, in accordance with the procedure disclosed in the literature (Cho K O et al., J. Neurosci. Res., 83, pp 285-291, 2006), with minor modification.
The SD rats prepared in Reference Example 1 were anesthetized by inhalation using enflurane (Choongwae Pharm. Corp., KOREA). Two common carotid arteries were exposed by surgery and tied with thread using BCCAO (bilateral common carotid artery occlusion) method to reduce the blood flow rate into brain for 4 weeks. And then water-maze test disclosed in Experimental Example 6 was performed for 5 days.
7 days after the two common carotid arteries were tied, the rats were started to be fed with HY6228 (200 mg/kg), inventive starch (SW; 200 mg/kg), TDF (50 mg/kg) and arabinoxlyan (50 mg/kg) therewith for 1 week, for which the mean escape latency was measured.

Row | Molecule | cell viability (SH-SY5Y cells; 20 microgram/ml) [%] | size of infarcted area reduced by [1] [%] | IA (% AAR) [1] [%] | viability at 250 µg/mL (SH-SY5Y cells) [%] | cell viability (SH-SY5Y cells; 500 microgram/ml) [%] | mean escape latency [2]
1 | beta-glucan | 70 | 13.4 | 43.8 | – | – | –
2 | O=C[C@H](O)[C@@H](O)[C@H](O)CO [xylose] | – | 16.8 | 42.1 | 72.1 | – | –
3 | O=C[C@@H](O)[C@H](O)[C@H](O)CO [arabinose] | – | 14.2 | 43.4 | 71.1 | – | –
4 | arabinoxylan | – | 16.4 | 42.3 | – | 75.5 | reduced the mean escape latency
